# Data: PubChem BioAssay AID256 (DTP/NCI, 2004)
# Several values for one entry are separate records, joined by “and”; a condition that tells them apart may be missing. Identical values can stand only once. Inconclusive results and toxic doses are left out.
# Tested on: CD2F1 mice, L1210 leukemia ip, survival T/C
# Experiment: NCI In Vivo Anticancer Drug Screen. Data for tumor model L1210 Leukemia (intraperitoneal) in CD2F1 (CDF1) mice
# Conditions: endpoint: mean survival time, higher = longer survival
# How it was run: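 Vehicle-treated tumor-bearing mice served as controls (C) for compound-treated mice (T). Reported figure is T divided by C.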
# [1] = dose: 6.25 mg/kg/injection, schedule: Q04DX003 (ip), vehicle: saline
# [2] = dose: 12.5 mg/kg/injection, schedule: Q04DX003 (ip), vehicle: saline
# [3] = dose: 25.0 mg/kg/injection, schedule: Q04DX003 (ip), vehicle: saline
# [4] = dose: 100.0 mg/kg/injection, schedule: Q04DX003 (ip), vehicle: saline
# [5] = dose: 50.0 mg/kg/injection, schedule: Q01DX009 (ip), vehicle: saline
# [6] = dose: 50.0 mg/kg/injection, schedule: Q04DX003 (ip), vehicle: saline
# [7] = dose: 100.0 mg/kg/injection, schedule: Q01DX009 (ip), vehicle: saline
# [8] = dose: 200.0 mg/kg/injection, schedule: Q01DX009 (ip), vehicle: saline
# [9] = dose: 100.0 mg/kg/injection, schedule: Q01DX009 (ip), vehicle: Klucel (hydroxypropylcellulose) (HPC)
# [10] = dose: 200.0 mg/kg/injection, schedule: Q01DX009 (ip), vehicle: Klucel (hydroxypropylcellulose) (HPC)
structure (smiles),measurement,setting,value
OC(c1ccccc1)c1cc(-c2ccccc2)c(-c2ccccc2)cc1C(O)c1ccccc1 (stereo not given),T/C,"dose: 12.5 mg/kg/injection, schedule: Q04DX003 (ip), vehicle: saline with Tween-80",102 % of control
same,T/C,"dose: 25.0 mg/kg/injection, schedule: Q04DX003 (ip), vehicle: saline with Tween-80",114 % of control
CCOC(=O)C(C(C)=O)C(=O)c1ccc([N+](=O)[O-])cc1 (stereo not given),T/C,"dose: 100.0 mg/kg/injection, schedule: Q01DX009 (ip), vehicle: saline with Tween-80",102 % of control
same,T/C,"dose: 100.0 mg/kg/injection, schedule: Q04DX003 (ip), vehicle: saline with Tween-80",100 % of control
same,T/C,"dose: 200.0 mg/kg/injection, schedule: Q01DX009 (ip), vehicle: saline with Tween-80",101 % of control
same,T/C,"dose: 200.0 mg/kg/injection, schedule: Q04DX003 (ip), vehicle: saline with Tween-80",102 % of control
same,T/C,"dose: 400.0 mg/kg/injection, schedule: Q01DX009 (ip), vehicle: saline with Tween-80",98 % of control
same,T/C,"dose: 400.0 mg/kg/injection, schedule: Q04DX003 (ip), vehicle: saline with Tween-80",100 % of control
CNC(=O)OCc1c(COC(=O)NC)c(-c2ccccc2)n(C)c1-c1ccccc1,T/C,"dose: 3.12 mg/kg/injection, schedule: Q01DX009 (ip), vehicle: distilled water + Tween-80",111 % of control
same,T/C,"dose: 6.25 mg/kg/injection, schedule: Q01DX009 (ip), vehicle: distilled water + Tween-80",111 % of control
same,T/C,"dose: 50.0 mg/kg/injection, schedule: Q01DX009 (ip), vehicle: distilled water + Tween-80",111 % of control
CN(Cc1cnc2nc(N)nc(N)c2n1)c1ccc(C(=O)NC(CCC(=O)NC(CC(=O)O)C(=O)O)C(=O)O)cc1 (stereo not given),T/C,"dose: 5.0 mg/kg/injection, schedule: Q01DX009 (ip), vehicle: sodium bicarbonate",165 % of control
same,T/C,"dose: 10.0 mg/kg/injection, schedule: Q01DX009 (ip), vehicle: sodium bicarbonate",151 % of control
CCCC(CC)(C[NH-])C[NH-].[Cl][Pt+2][Cl],T/C,[1],120 % of control and 109 % of control
same,T/C,[2],121 % of control and 109 % of control
same,T/C,[3],114 % of control
same,T/C,[4],158 % of control
same,T/C,"dose: 200.0 mg/kg/injection, schedule: Q04DX003 (ip), vehicle: saline",114 % of control and 105 % of control
CCC(=N\N=C(N)N)/C(C)=N\N=C(N)N,T/C,"dose: 15.0 mg/kg/injection, schedule: Q01DX009 (ip), vehicle: saline",95 % of control
same,T/C,"dose: 30.0 mg/kg/injection, schedule: Q01DX009 (ip), vehicle: saline",91 % of control
CC(=O)NC(C=O)CC(C=O)CO (stereo not given),T/C,[5],103 % of control
same,T/C,[6],107 % of control
same,T/C,[7],107 % of control
same,T/C,[4],109 % of control
same,T/C,"dose: 150.0 mg/kg/injection, schedule: Q04DX003 (ip), vehicle: saline",108 % of control
same,T/C,[8],95 % of control
C=CCNC1CCS(=O)(=O)C1 (stereo not given),T/C,[5],104 % of control
same,T/C,[7],97 % of control
same,T/C,[8],104 % of control
CS(=O)(=O)OCC(/C=C/C(COS(C)(=O)=O)OS(C)(=O)=O)OS(C)(=O)=O (stereo not given),T/C,[9],150 % of control
same,T/C,[10],175 % of control
Cn1cnc2cc(N)ccc21,T/C,[5],95 % of control
same,T/C,[7],98 % of control
same,T/C,[8],98 % of control
CCN(CC)[P+](c1ccccc1O)(N(CC)CC)N(CC)CC,T/C,"dose: 0.39 mg/kg/injection, schedule: Q01DX009 (ip), vehicle: saline",103 % of control
same,T/C,"dose: 0.78 mg/kg/injection, schedule: Q01DX009 (ip), vehicle: saline",104 % of control
same,T/C,"dose: 1.56 mg/kg/injection, schedule: Q01DX009 (ip), vehicle: saline",109 % of control
same,T/C,"dose: 6.25 mg/kg/injection, schedule: Q01DX009 (ip), vehicle: saline",92 % of control
CC(=O)CC1C(CC(=O)O)C1(C)C (stereo not given),T/C,"dose: 100.0 mg/kg/injection, schedule: Q01DX001 (ip), vehicle: alcohol",100 % of control
same,T/C,"dose: 200.0 mg/kg/injection, schedule: Q01DX001 (ip), vehicle: alcohol",102 % of control
same,T/C,"dose: 400.0 mg/kg/injection, schedule: Q01DX001 (ip), vehicle: alcohol",102 % of control
Cc1ccccc1N=C(NO)c1ccccc1,T/C,[5],98 % of control
same,T/C,[7],98 % of control
same,T/C,[8],95 % of control
COc1ccc2c(c1)N(CCC1CCCCN1C)c1ccccc1S2 (stereo not given),T/C,[1],93 % of control and 100 % of control
same,T/C,"dose: 12.5 mg/kg/injection, schedule: Q04DX003 (ip), vehicle: Klucel (hydroxypropylcellulose) (HPC)",97 % of control
same,T/C,[2],98 % of control and 100 % of control
same,T/C,"dose: 25.0 mg/kg/injection, schedule: Q04DX003 (ip), vehicle: Klucel (hydroxypropylcellulose) (HPC)",95 % of control
same,T/C,[3],101 % of control and 102 % of control
same,T/C,"dose: 50.0 mg/kg/injection, schedule: Q04DX003 (ip), vehicle: Klucel (hydroxypropylcellulose) (HPC)",97 % of control
same,T/C,[6],106 % of control
same,T/C,"dose: 100.0 mg/kg/injection, schedule: Q04DX003 (ip), vehicle: Klucel (hydroxypropylcellulose) (HPC)",103 % of control
Cc1ccc([N+](=O)[O-])cc1NC(=O)Nc1ccon1,T/C,"dose: 50.0 mg/kg/injection, schedule: Q01DX009 (ip), vehicle: Klucel (hydroxypropylcellulose) (HPC)",108 % of control
same,T/C,[9],96 % of control
same,T/C,[10],98 % of control
